Laboratory results reported in patent publication US10597388B2, “Pyridazinone herbicides” (FMC CORPORATION, priority 2014, dated 2020).

Assays:
Assay in all cases: Test D controlled growth environment herbicide test, pre- and postemergence
Format in all cases: in vivo
[1] = tested on: Russian thistle (Salsola kali)
In short: (§1)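 Rating is visual, 0–100 scale (100 = complete control), made against untreated plants 14–21 d after treatment in controlled growth conditions. Postemergence sprays went onto 1- to 4-leaf plants in peat medium; preemergence sprays onto silt loam after sowing; formulation included a surfactant.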

[2] = tested on: blackgrass (Alopecurus myosuroides)
In short: as §1

[3] = tested on: bromegrass, downy (downy bromegrass, Bromus tectorum)
In short: as §1

[4] = tested on: chickweed (common chickweed, Stellaria media)
In short: as §1

[5] = tested on: deadnettle (henbit deadnettle, Lamium amplexicaule)
In short: as §1

[6] = tested on: foxtail, green (green foxtail, Setaria viridis)
In short: as §1

[7] = tested on: mustard, wild (wild mustard, Sinapis arvensis)
In short: as §1

[8] = tested on: oat, wild (wild oat, Avena fatua)
In short: as §1

[9] = tested on: oilseed rape (Brassica napus)
In short: as §1

[10] = tested on: ryegrass, Italian (Italian ryegrass, Lolium multiflorum)
In short: as §1

[11] = tested on: speedwell (bird's-eye speedwell, Veronica persica)
In short: as §1

[12] = tested on: wheat, spring (spring wheat, Triticum aestivum)
In short: as §1

[13] = tested on: wheat, winter (winter wheat, Triticum aestivum)
In short: as §1

[14] = Postemergence, 31 g ai/ha, scale 0 to 100 (0 no effect, 100 complete control)
[15] = Postemergence, 125 g ai/ha, visual rating on scale 0 (no effect) to 100 (complete control), 14 to 21 d
[16] = Postemergence, 250 g ai/ha, scale 0 to 100 (0 no effect, 100 complete control)
[17] = Preemergence, 62 g ai/ha, scale 0 to 100 (0 no effect, 100 complete control)
[18] = Preemergence, 125 g ai/ha, scale 0 to 100 (0 no effect, 100 complete control)
[19] = Preemergence, 250 g ai/ha, scale 0 to 100, 0 no effect, 100 complete control
[20] = postemergence, 62 g ai/ha, scale 0 to 100, 0 no effect, 100 complete control

Cc1ccc2sc(Br)c(-c3c(O)c(C)nn(C)c3=O)c2c1 [Compound 79]
Russian Thistle plant response rating [1, 14]: 50 | Plant response rating, Russian Thistle [1, 15]: 55 | Plant response rating, Russian Thistle [1, 16]: 65 | Plant response rating (scale of 0 to 100), Russian Thistle ([1]; Preemergence, 31 g ai/ha): 0 | Plant response rating, Russian Thistle [1, 17]: 70 | Plant response rating, Russian Thistle [1, 18]: 75 | Plant response rating, Russian Thistle [1, 19]: 100 | Plant response rating, Russian Thistle [1, 20]: 55 | Blackgrass plant response rating [2, 14]: 10 | Plant response rating, Blackgrass [2, 15]: 40 | Plant response rating, Blackgrass [2, 16]: 50 | Plant response rating (scale of 0 to 100), Blackgrass ([2]; Preemergence, 31 g ai/ha): 20 | Plant response rating, Blackgrass [2, 17]: 45 | Plant response rating, Blackgrass [2, 18]: 55 | Plant response rating, Blackgrass [2, 19]: 60 | Plant response rating, Blackgrass [2, 20]: 20 | Bromegrass, Downy plant response rating [3, 14]: 5 | Plant response rating, Bromegrass, Downy [3, 15]: 10 | Plant response rating, Bromegrass, Downy [3, 16]: 20 | Plant response rating (scale of 0 to 100), Bromegrass, Downy ([3]; Preemergence, 31 g ai/ha): 35 | Plant response rating, Bromegrass, Downy [3, 17]: 35 | Plant response rating, Bromegrass, Downy [3, 18]: 50 | Plant response rating, Bromegrass, Downy [3, 19]: 60 | Plant response rating, Bromegrass, Downy [3, 20]: 5 | Chickweed plant response rating [4, 14]: 95 | Plant response rating, Chickweed [4, 15]: 100 | Plant response rating, Chickweed [4, 16]: 100 | Plant response rating (scale of 0 to 100), Chickweed ([4]; Preemergence, 31 g ai/ha): 100 | Plant response rating, Chickweed [4, 17]: 100 | Plant response rating, Chickweed [4, 18]: 100 | Plant response rating, Chickweed [4, 19]: 100 | Plant response rating, Chickweed [4, 20]: 95 | Deadnettle plant response rating [5, 14]: 5 | Plant response rating, Deadnettle [5, 15]: 20 | Plant response rating, Deadnettle [5, 16]: 40 | Plant response rating (scale of 0 to 100), Deadnettle ([5]; Preemergence, 31 g ai/ha): 0 | Plant response rating, Deadnettle [5, 17]: 10 | Plant response rating, Deadnettle [5, 18]: 100 | Plant response rating, Deadnettle [5, 19]: 90 | Plant response rating, Deadnettle [5, 20]: 15 | Foxtail, Green plant response rating [6, 14]: 20 | Plant response rating, Foxtail, Green [6, 15]: 75 | Plant response rating, Foxtail, Green [6, 16]: 80 | Plant response rating (scale of 0 to 100), Foxtail, Green ([6]; Preemergence, 31 g ai/ha): 55 | Plant response rating, Foxtail, Green [6, 17]: 60 | Plant response rating, Foxtail, Green [6, 18]: 65 | Plant response rating, Foxtail, Green [6, 19]: 95 | Plant response rating, Foxtail, Green [6, 20]: 70 | Mustard, Wild plant response rating [7, 14]: 20 | Plant response rating, Mustard, Wild [7, 15]: 40 | Plant response rating, Mustard, Wild [7, 16]: 50 | Plant response rating (scale of 0 to 100), Mustard, Wild ([7]; Preemergence, 31 g ai/ha): 0 | Plant response rating, Mustard, Wild [7, 17]: 15 | Plant response rating, Mustard, Wild [7, 18]: 5 | Plant response rating, Mustard, Wild [7, 19]: 10 | Plant response rating, Mustard, Wild [7, 20]: 20 | Oat, Wild plant response rating [8, 14]: 70 | Plant response rating, Oat, Wild [8, 15]: 80 | Plant response rating, Oat, Wild [8, 16]: 85 | Plant response rating (scale of 0 to 100), Oat, Wild ([8]; Preemergence, 31 g ai/ha): 80 | Plant response rating, Oat, Wild [8, 17]: 80 | Plant response rating, Oat, Wild [8, 18]: 85 | Plant response rating, Oat, Wild [8, 19]: 90 | Plant response rating, Oat, Wild [8, 20]: 70 | Oilseed Rape plant response rating [9, 14]: 0 | Plant response rating, Oilseed Rape [9, 15]: 20 | Plant response rating, Oilseed Rape [9, 16]: 30 | Plant response rating (scale of 0 to 100), Oilseed Rape ([9]; Preemergence, 31 g ai/ha): 25 | Plant response rating, Oilseed Rape [9, 17]: 35 | Plant response rating, Oilseed Rape [9, 18]: 40 | Plant response rating, Oilseed Rape [9, 19]: 35 | Plant response rating, Oilseed Rape [9, 20]: 5 | Ryegrass, Italian plant response rating [10, 14]: 70 | Plant response rating, Ryegrass, Italian [10, 15]: 85 | Plant response rating, Ryegrass, Italian [10, 16]: 90 | Plant response rating (scale of 0 to 100), Ryegrass, Italian ([10]; Preemergence, 31 g ai/ha): 80 | Plant response rating, Ryegrass, Italian [10, 17]: 85 | Plant response rating, Ryegrass, Italian [10, 18]: 90 | Plant response rating, Ryegrass, Italian [10, 19]: 100 | Plant response rating, Ryegrass, Italian [10, 20]: 75 | Speedwell plant response rating [11, 14]: 25 | Plant response rating, Speedwell [11, 15]: 35 | Plant response rating, Speedwell [11, 16]: 65 | Plant response rating, Speedwell [11, 20]: 30 | Wheat, Spring plant response rating [12, 14]: 0 | Plant response rating, Wheat, Spring [12, 15]: 0 | Plant response rating, Wheat, Spring [12, 16]: 5 | Plant response rating (scale of 0 to 100), Wheat, Spring ([12]; Preemergence, 31 g ai/ha): 0 | Plant response rating, Wheat, Spring [12, 17]: 0 | Plant response rating, Wheat, Spring [12, 18]: 0 | Plant response rating, Wheat, Spring [12, 19]: 0 | Plant response rating, Wheat, Spring [12, 20]: 0 | Wheat, Winter plant response rating [13, 14]: 0 | Plant response rating, Wheat, Winter [13, 15]: 0 | Plant response rating, Wheat, Winter [13, 16]: 0 | Plant response rating (scale of 0 to 100), Wheat, Winter ([13]; Preemergence, 31 g ai/ha): 0 | Plant response rating, Wheat, Winter [13, 17]: 0 | Plant response rating, Wheat, Winter [13, 18]: 0 | Plant response rating, Wheat, Winter [13, 19]: 0 | Plant response rating, Wheat, Winter [13, 20]: 0
